Experimental findings from patent US8574563B2 (Bristol-Myers Squibb Company, priority 2006, dated 2013) are described below.

pEC50: −log10 of the molar value.

The subject of one experiment is HCV 1b-377-neo replicon cells. The experiment is described as follows: HCV replicon assay, HCV 1b-377-neo replicon cells (1b FRET). It counts as cell-based, Hepatitis C virus genotype 1b. The conditions noted are these: HCV 1b-377-neo replicon cells; HCV 1b genotype; read-out: EC50 range against HCV 1b (Table 2, Range). Summed up: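 Compounds were tested in genotype 1b subgenomic replicon cells carrying a neomycin marker, alongside a matched replicon line with an NS5A Y2065H substitution that confers resistance to a reference NS5A inhibitor.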
(In general: Replicon systems follow genome replication, usually without infectious particles.)
Usually pEC50 stands for the EC50 on a negative log10 scale, so that one unit is a factor of ten. As to `CN(C)[C@@H](C(=O)N1CCC[C@H]1c1ncc(-c2ccc(-c3ccc(-c4cnc([C@@H]5CCCN5C(=O)c5ccc(N6CCOCC6)cc5)[nH]4)cc3)cc2)[nH]1)c1ccccc1` [Example 94-9, (1R)-N,N-dimethyl-2-((2S)-2-(5-(4′-(2-((2S)-1-(4-(4-morpholinyl)benzoyl)-2-pyrrolidinyl)-1H-imidazol-5-yl)-4-biphenylyl)-1H-imidazol-2-yl)-1-pyrrolidinyl)-2-oxo-1-phenylthanamine], the pEC50 was 9.00 to 12.00. With `CN(C)[C@@H](C(=O)N1CCC[C@H]1c1ncc(-c2ccc(-c3ccc(-c4cnc([C@@H]5CCCN5C(=O)C5CCN(C(=O)OC(C)(C)C)CC5)[nH]4)cc3)cc2)[nH]1)c1ccccc1` [Example 94-34, ′tert-butyl 4-(((2S)-2-(5-(4′-(2-((2S)-1-((2R)-2-(dimethylamino)-2-phenylacetyl)-2-pyrrolidinyl)-1H-imidazol-5-yl)-4-biphenylyl)-1H-imidazol-2-yl)-1-pyrrolidinyl)carbonyl)-1-piperidinecarboxylate], the pEC50 was 7.00 to 9.00.

The same experiment, now with this note: Hepatitis C virus, HCV 1b-377-neo replicon cells; HCV 1b genotype; read-out: EC50 range against HCV 1b (Table 2, Range).
Turning to `CN(C)[C@@H](C(=O)N1CCC[C@H]1c1ncc(-c2ccc(-c3ccc(-c4cnc([C@@H]5CCCN5C(=O)c5snnc5-c5ccccc5)[nH]4)cc3)cc2)[nH]1)c1ccccc1` [Example 94-10, (1R)-N,N-dimethyl-2-oxo-1-phenyl-2-((2S)-2-(5-(4′-(2-((2S)-1-((4-phenyl-1,2,3-thiadiazol-5-yl)carbonyl)-2-pyrrolidinyl)-1H-imidazol-5-yl)-4-biphenylyl)-1H-imidazol-2-yl)-1-pyrrolidinyl)ethanamine], the pEC50 is 9.00 to 12.00. On the same count and under the same terms, then `CN(C)[C@@H](C(=O)N1CCC[C@H]1c1ncc(-c2ccc(-c3ccc(-c4cnc([C@@H]5CCCN5C(=O)C5(C)CCN(C(=O)OC(C)(C)C)CC5)[nH]4)cc3)cc2)[nH]1)c1ccccc1` [Example 94-12, tert-butyl 4-(((2S)-2-(5-(4′-(2-((2S)-1-((2R)-2-(dimethylamino)-2-phenylacetyl)-2-pyrrolidinyl)-1H-imidazol-5-yl)-4-biphenylyl)-1H-imidazol-2-yl)-1-pyrrolidinyl)carbonyl)-4-methyl-1-piperidinecarboxylate], with 7.00 to 9.00; and `CN(C)[C@@H](C(=O)N1CCC[C@H]1c1ncc(-c2ccc(-c3ccc(-c4cnc([C@@H]5CCCN5C(=O)Cc5cccc(O)c5)[nH]4)cc3)cc2)[nH]1)c1ccccc1` [Example 94-13, 3-(2-((2S)-2-(5-(4′-(2-((2S)-1-((2R)-2-(dimethylamino)-2-phenylacetyl)-2-pyrrolidinyl)-1H-imidazol-5-yl)-4-biphenylyl)-1H-imidazol-2-yl)-1-pyrrolidinyl)-2-oxoethyl)phenol], with 9.00 to 12.00; and `CN(C)[C@@H](C(=O)N1CCC[C@H]1c1ncc(-c2ccc(-c3ccc(-c4cnc([C@@H]5CCCN5C(=O)[C@@H]5CCN(Cc6ccccc6)C5)[nH]4)cc3)cc2)[nH]1)c1ccccc1` [Example 94-17, (1R)-2-((2S)-2-(5-(4′-(2-((2S)-1-(((3R)-1-benzyl-3-pyrrolidinyl)carbonyl)-2-pyrrolidinyl)-1H-imidazol-5-yl)-4-biphenylyl)-1H-imidazol-2-yl)-1-pyrrolidinyl)-N,N-dimethyl-2-oxo-1-phenylethanamine], with 9.00 to 12.00. Regarding `Cc1cc(CC(=O)N2CCC[C@H]2c2ncc(-c3ccc(-c4ccc(-c5cnc([C@@H]6CCCN6C(=O)[C@@H](c6ccccc6)N(C)C)[nH]5)cc4)cc3)[nH]2)n[nH]1` [Example 94-19, (1R)-N,N-dimethyl-2-((2S)-2-(5-(4′-(2-((2S)-1-((5-methyl-1H-pyrazol-3-yl)acetyl)-2-pyrrolidinyl)-1H-imidazol-5-yl)-4-biphenylyl)-1H-imidazol-2-yl)-1-pyrrolidinyl)-2-oxo-1-phenylethanamine], the pEC50 was 9.00 to 12.00.

`CN(C)[C@@H](C(=O)N1CCC[C@H]1c1ncc(-c2ccc(-c3ccc(-c4cnc([C@@H]5CCCN5C(=O)[C@H]5CCCCN5C(=O)OC(C)(C)C)[nH]4)cc3)cc2)[nH]1)c1ccccc1` [Example 94-20, tert-butyl (2R)-2-(((2S)-2-(5-(4′-(2-((2S)-1-((2R)-2-(dimethylamino)-2-phenylacetyl)-2-pyrrolidinyl)-1H-imidazol-5-yl)-4-biphenylyl)-1H-imidazol-2-yl)-1-pyrrolidinyl)carbonyl)-1-piperidinecarboxylate]: the pEC50 is 7.00 to 9.00. On the same count and under the same terms, to `COc1ccccc1OCC(=O)N1CCC[C@H]1c1ncc(-c2ccc(-c3ccc(-c4cnc([C@@H]5CCCN5C(=O)[C@@H](c5ccccc5)N(C)C)[nH]4)cc3)cc2)[nH]1` [Example 94-24, (1R)-2-((2S)-2-(5-(4′-(2-((2S)-1-((2-methoxyphenoxy)acetyl)-2-pyrrolidinyl)-1H-imidazol-5-yl)-4-biphenylyl)-1H-imidazol-2-yl)-1-pyrrolidinyl)-N,N-dimethyl-2-oxo-1-phenylethanamine] belongs 9.00 to 12.00. As to `CN(C)[C@@H](C(=O)N1CCC[C@H]1c1ncc(-c2ccc(-c3ccc(-c4cnc([C@@H]5CCCN5C(=O)C5CN(C(=O)OC(C)(C)C)C5)[nH]4)cc3)cc2)[nH]1)c1ccccc1` [Example 94-25, tert-butyl 3-(((2S)-2-(5-(4′-(2-((2S)-1-((2R)-2-(dimethylamino)-2-phenylacetyl)-2-pyrrolidinyl)-1H-imidazol-5-yl)-4-biphenylyl)-1H-imidazol-2-yl)-1-pyrrolidinyl)carbonyl)-1-azetidinecarboxylate], the pEC50 is 9.00 to 12.00. On the same count and under the same terms, to `CN(C)[C@@H](C(=O)N1CCC[C@H]1c1ncc(-c2ccc(-c3ccc(-c4cnc([C@@H]5CCCN5C(=O)[C@H]5CCN(Cc6ccccc6)C5)[nH]4)cc3)cc2)[nH]1)c1ccccc1` [Example 94-26, (1R)-2-((2S)-2-(5-(4′-(2-((2S)-1-(((3S)-1-benzyl-3-pyrrolidinyl)carbonyl)-2-pyrrolidinyl)-1H-imidazol-5-yl)-4-biphenylyl)-1H-imidazol-2-yl)-1-pyrrolidinyl)-N,N-dimethyl-2-oxo-1-phenylethanamine] belongs 9.00 to 12.00.

Consider `CN(C)[C@@H](C(=O)N1CCC[C@H]1c1ncc(-c2ccc(-c3ccc(-c4cnc([C@@H]5CCCN5C(=O)c5cccc(N6CCCC6)c5)[nH]4)cc3)cc2)[nH]1)c1ccccc1` [Example 94-27, (1R)-N,N-dimethyl-2-oxo-1-phenyl-2-((2S)-2-(5-(4′-(2-((2S)-1-(3-(1-pyrrolidinyl)benzoyl)-2-pyrrolidinyl)-1H-imidazol-5-yl)-4-biphenylyl)-1H-imidazol-2-yl)-1-pyrrolidinyl)ethanamine], for which the pEC50 is 7.00 to 9.00. On the same count and under the same terms, to `CN(C)[C@@H](C(=O)N1CCC[C@H]1c1ncc(-c2ccc(-c3ccc(-c4cnc([C@@H]5CCCN5C(=O)C5(C(F)(F)F)CC5)[nH]4)cc3)cc2)[nH]1)c1ccccc1` [Example 94-30, (1R)-N,N-dimethyl-2-oxo-1-phenyl-2-((2S)-2-(5-(4′-(2-((2S)-1-((1-(trifluoromethyl)cyclopropyl)carbonyl)-2-pyrrolidinyl)-1H-imidazol-5-yl)-4-biphenylyl)-1H-imidazol-2-yl)-1-pyrrolidinyl)ethanamine] belongs 9.00 to 12.00; to `CN(C)[C@@H](C(=O)N1CCC[C@H]1c1ncc(-c2ccc(-c3ccc(-c4cnc([C@@H]5CCCN5C(=O)c5cccc(C(=O)c6ccccc6)c5)[nH]4)cc3)cc2)[nH]1)c1ccccc1` [Example 94-32, (3-(((2S)-2-(5-(4′-(2-((2S)-1-((2R)-2-(dimethylamino)-2-phenylacetyl)-2-pyrrolidinyl)-1H-imidazol-5-yl)-4-biphenylyl)-1H-imidazol-2-yl)-1-pyrrolidinyl)carbonyl)phenyl)(phenyl)methanone], 7.00 to 9.00. With `CN(C)[C@@H](C(=O)N1CCC[C@H]1c1ncc(-c2ccc(-c3ccc(-c4cnc([C@@H]5CCCN5C(=O)[C@H]5CC[C@@H](NC(=O)OC(C)(C)C)CC5)[nH]4)cc3)cc2)[nH]1)c1ccccc1` [Example 94-33, tert-butyl (cis-4-(((2S)-2-(5-(4′-(2-((2S)-1-((2R)-2-(dimethylamino)-2-phenylacetyl)-2-pyrrolidinyl)-1H-imidazol-5-yl)-4-biphenylyl)-1H-imidazol-2-yl)-1-pyrrolidinyl)carbonyl)cyclohexyl)carbamate], the negative-log EC50 (pEC50) was 7.00 to 9.00. Take `CN(C)[C@@H](C(=O)N1CCC[C@H]1c1ncc(-c2ccc(-c3ccc(-c4cnc([C@@H]5CCCN5C(=O)C(c5ccccc5)c5ccccc5)[nH]4)cc3)cc2)[nH]1)c1ccccc1` [Example 94-36, (1R)-2-((2S)-2-(5-(4′-(2-((2S)-1-(diphenylacetyl)-2-pyrrolidinyl)-1H-imidazol-5-yl)-4-biphenylyl)-1H-imidazol-2-yl)-1-pyrrolidinyl)-N,N-dimethyl-2-oxo-1-phenylethanamine]: the pEC50 was 9.00 to 12.00. In the case of `CC(=O)CCC(=O)N1CCC[C@H]1c1ncc(-c2ccc(-c3ccc(-c4cnc([C@@H]5CCCN5C(=O)[C@@H](c5ccccc5)N(C)C)[nH]4)cc3)cc2)[nH]1` [Example 94-37, 5-((2S)-2-(5-(4′-(2-((2S)-1-((2R)-2-(dimethylamino)-2-phenylacetyl)-2-pyrrolidinyl)-1H-imidazol-5-yl)-4-biphenylyl)-1H-imidazol-2-yl)-1-pyrrolidinyl)-5-oxo-2-pentanone], the pEC50 was 7.00 to 9.00. With `CN(C)[C@@H](C(=O)N1CCC[C@H]1c1ncc(-c2ccc(-c3ccc(-c4cnc([C@@H]5CCCN5C(=O)c5ccccc5F)[nH]4)cc3)cc2)[nH]1)c1ccccc1` [Example 94-38, (1R)-2-((2S)-2-(5-(4′-(2-((2S)-1-(2-fluorobenzoyl)-2-pyrrolidinyl)-1H-imidazol-5-yl)-4-biphenylyl)-1H-imidazol-2-yl)-1-pyrrolidinyl)-N,N-dimethyl-2-oxo-1-phenylethanamine], the pEC50 was 9.00 to 12.00.

For `CN(C)[C@@H](C(=O)N1CCC[C@H]1c1ncc(-c2ccc(-c3ccc(-c4cnc([C@@H]5CCCN5C(=O)c5cscn5)[nH]4)cc3)cc2)[nH]1)c1ccccc1` [Example 94-42, (1R)-N,N-dimethyl-2-oxo-1-phenyl-2-((2S)-2-(5-(4′-(2-((2S)-1-(1,3-thiazol-4-ylcarbonyl)-2-pyrrolidinyl)-1H-imidazol-5-yl)-4-biphenylyl)-1H-imidazol-2-yl)-1-pyrrolidinyl)ethanamine], the pEC50 is 9.00 to 12.00.
